Data as given in the supplement of paper PMC10307832.

What was measured:
Assay in all cases: relative viability (nuclei count vs DMSO), 5 days (fraction); higher = more cells survive
Shikonin + Tozasertib = compound: CC(C)=CC[C@@H](O)C1=CC(=O)c2c(O)ccc(O)c2C1=O [Shikonin] + Cc1cc(Nc2cc(N3CCN(C)CC3)nc(Sc3ccc(NC(=O)C4CC4)cc3)n2)n[nH]1 [Tozasertib] (partner 0.1 µM)
Outline: (§1)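 The day after seeding in 1536-well plates, lung cancer cell lines were treated by pin tool with a single drug, or with a fixed anchor-drug dose together with five library-drug doses (not always all listed) in √10 steps. After 5 days, a combined fix-and-stain solution (final 0.05% Triton X-100, 1% formaldehyde, 1 ug/ml Hoechst) was added. Nuclei counted on 4× images gave relative viability as treated counts over vehicle counts, reported as the median of duplicate plates.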

[1] = compound: CC(C)N(CCCNC(=O)Nc1ccc(C(C)(C)C)cc1)C[C@H]1O[C@@H](n2ccc3c(N)ncnc32)[C@H](O)[C@@H]1O + CC(=O)c1c(C)c2cnc(Nc3ccc(N4CCNCC4)cn3)nc2n(C2CCCC2)c1=O [Palbociclib] (partner 0.5 µM)
Outline: as §1

[2] = compound: CC(C)N(CCCNC(=O)Nc1ccc(C(C)(C)C)cc1)C[C@H]1O[C@@H](n2ccc3c(N)ncnc32)[C@H](O)[C@@H]1O + CC1(C)CCC(c2ccc(Cl)cc2)=C(CN2CCN(c3ccc(C(=O)NS(=O)(=O)c4ccc(N[C@H](CCN5CCOCC5)CSc5ccccc5)c(S(=O)(=O)C(F)(F)F)c4)cc3)CC2)C1 [Navitoclax] (partner 0.5 µM)
Outline: as §1

[3] = compound: CC(C)N(CCCNC(=O)Nc1ccc(C(C)(C)C)cc1)C[C@H]1O[C@@H](n2ccc3c(N)ncnc32)[C@H](O)[C@@H]1O + C[C@]1(O)C[C@@H](c2nc(-c3ccc4ccc(-c5ccccc5)nc4c3)c3c(N)nccn32)C1 [Linsitinib] (partner 1 µM)
Outline: as §1

Cell Line	relative viability (Shikonin + Tozasertib; first compound 0.01 µM)	relative viability (Shikonin + Tozasertib; first compound 0.1 µM)	relative viability (Shikonin + Tozasertib; first compound 0.3162 µM)	relative viability (Shikonin + Tozasertib; first compound 1 µM)	relative viability ([1]; first compound 0.08 µM)	relative viability ([1]; first compound 0.253 µM)	relative viability ([1]; first compound 2.53 µM)	relative viability ([1]; first compound 8 µM)	relative viability ([2]; first compound 0.08 µM)	relative viability ([2]; first compound 0.253 µM)	relative viability ([2]; first compound 0.8 µM)	relative viability ([2]; first compound 2.53 µM)	relative viability ([2]; first compound 8 µM)	relative viability ([3]; first compound 0.08 µM)	relative viability ([3]; first compound 0.253 µM)	relative viability ([3]; first compound 0.8 µM)	relative viability ([3]; first compound 2.53 µM)	relative viability ([3]; first compound 8 µM)	relative viability ([1]; first compound 0.8 µM)
PC-3 [JPC-3]	0.883	0.984	1.01	0.94	0.54	0.53	0.507	0.487	0.784	0.752	0.807	0.797	0.7	0.97	0.94	0.876	0.919	0.897	
NCI-H1755	0.578	0.521	0.506	0.532	0.437	0.435	0.484	0.498	0.986	0.99	0.923	0.958	0.914	1.01	0.997	0.894	0.916	0.836	0.45
HCC-78	0.465	0.433	0.402	0.372	0.391	0.484	0.458	0.476	0.704	0.646	0.607	0.784	0.839	0.576	0.437	0.423	0.51	0.456	0.502
IA-LM									0.693	0.788	0.951	0.72	0.586	0.318	0.559	0.413	0.443	0.432	
NCI-H441	0.898	0.617	0.663	0.601	0.203	0.186	0.237	0.216		0.66	0.682	0.698	0.63	0.565	0.557	0.602	0.611	0.636	
NCI-H322M	0.486	0.467	0.478	0.381	0.481	0.488	0.489	0.532	1.16	1.09	1.19	1.2	1.16	0.863	0.81	0.877	0.861	0.894	0.494
NCI-H520	0.49	0.436	0.475	0.433	0.237	0.196	0.226	0.25	1.04	1.15	1.1	1.05	0.929	0.943	0.87	0.882	1	0.894	0.191
NCI-H661	0.371	0.359	0.355	0.37	0.395	0.437	0.423	0.423						0.473	0.553	0.585	0.567	0.57	0.45
NCI-H1792					0.631	0.671	0.639	0.643	0.634	0.589	0.623	0.591	0.571	0.534	0.503	0.393	0.52	0.535	0.773
ChaGo-K-1	0.212	0.232	0.236	0.248	0.887	0.96	0.928	0.95	1.01	1.02	0.92	1.01	1.05						0.959
NCI-H2342	0.408	0.494	0.502	0.507	0.556	0.533	0.551	0.549											0.481
NCI-H1299									1.07	1.05	1.02	1.06	1.02	0.876	1.02	0.97	0.918	0.942	
NCI-H1650	0.419	0.367	0.365	0.3	0.38	0.431	0.335	0.396	1.11	1.17		1.14	1						0.131
SW 900	0.546	0.458	0.527	0.536	0.564	0.521	0.543	0.473											
NCI-H650	0.69	0.793	0.788	0.66	0.349	0.339	0.319	0.348						0.757	0.732	1.04	0.791	0.704	0.323
NCI-H1648	0.537	0.404	0.471	0.408	0.268	0.315	0.287	0.323											0.335
NCI-H522	0.599	0.555	0.615	0.572	0.85	1.05	1.09	1.4											1.09
A549									1.17	1.22	1.25	1.18	1.14	0.561	0.554	0.525	0.679	0.635	
NCI-H2170	0.68	0.494	0.695	0.739	0.407	0.399	0.381	0.351	0.605	0.637	0.594	0.567	0.544						0.372
NCI-H596	0.79	0.83	0.914	0.732					0.98	0.877	0.909	1.01	0.992	0.991	0.926	1.02	1.08	1.21	
NCI-H1563														1.16	1.14	1.32	1.27	1.18	
ABC-1	0.141	0.196	0.188	0.187	0.665	0.868	0.763	0.655						0.978	0.95		0.709	0.905	
LCLC-103H	0.452	0.498	0.52	0.516	0.488	0.47	0.482	0.459						1.04	0.887	0.959	1.04	0.917	0.438
